Measurements as given in ChEMBL document CHEMBL4190346, “Structure-based design, synthesis, and biological evaluation of withaferin A-analogues as potent apoptotic inducers” (Eur J Med Chem, 2017).
pIC50: −log10 of the molar value.

Tests used:
HeLa [1] = assay: Cytotoxicity against human HeLa cells assessed as reduction in cell viability using compound addition to cell culture cells in lag phase of growth and incubated for 48 hrs by MTT assay; type: functional, cell-based; conditions: for pIC50: Homo sapiens, HeLa, 48 h, read-out: IC50
HeLa [2] = assay: Cytotoxicity against human HeLa cells assessed as reduction in cell viability using compound addition to cell culture cells in log phase of growth and incubated for 48 hrs by MTT assay; type: functional, cell-based; conditions: for pIC50: Homo sapiens, HeLa, 48 h, read-out: IC50
A549 [3] = assay: Cytotoxicity against human A549 cells assessed as reduction in cell viability using compound addition to cell culture cells in lag phase of growth and incubated for 48 hrs by MTT assay; type: functional, cell-based; conditions: for pIC50: Homo sapiens, A549, 48 h, read-out: IC50
A549 [4] = assay: Cytotoxicity against human A549 cells assessed as reduction in cell viability using compound addition to cell culture cells in log phase of growth and incubated for 48 hrs by MTT assay; type: functional, cell-based; conditions: for pIC50: Homo sapiens, A549, 48 h, read-out: IC50
MCF7 [5] = assay: Cytotoxicity against human MCF7 cells assessed as reduction in cell viability using compound addition to cell culture cells in lag phase of growth and incubated for 48 hrs by MTT assay; type: functional, cell-based; conditions: for pIC50: Homo sapiens, MCF7, 48 h, read-out: IC50
MCF7 [6] = assay: Cytotoxicity against human MCF7 cells assessed as reduction in cell viability using compound addition to cell culture cells in log phase of growth and incubated for 48 hrs by MTT assay; type: functional, cell-based; conditions: for pIC50: Homo sapiens, MCF7, 48 h, read-out: IC50
Vero [7] = assay: Cytotoxicity against African green monkey Vero cells assessed as reduction in cell viability using compound addition to cell culture cells in lag phase of growth and incubated for 48 hrs by MTT assay; type: cell-based, Chlorocebus sabaeus; conditions: for pIC50: Chlorocebus sabaeus, Vero, 48 h, read-out: IC50
Vero [8] = assay: Cytotoxicity against African green monkey Vero cells assessed as reduction in cell viability using compound addition to cell culture cells in log phase of growth and incubated for 48 hrs by MTT assay; type: cell-based, Chlorocebus sabaeus; conditions: for pIC50: Chlorocebus sabaeus, Vero, 48 h, read-out: IC50

Structure (SMILES)	pIC50 (HeLa [1])	pIC50 (HeLa [2])	pIC50 (A549 [3])	pIC50 (A549 [4])	pIC50 (MCF7 [5])	pIC50 (MCF7 [6])	pIC50 (Vero [7])	pIC50 (Vero [8])	IC50 (HeLa [1]; hela)	IC50 (HeLa [2]; hela)	IC50 (A549 [3]; a549)	IC50 (A549 [4]; a549)	IC50 (MCF7 [5]; mcf7)	IC50 (MCF7 [6]; mcf7)	IC50 (Vero [7]; vero)	IC50 (Vero [8]; vero)
CC(=O)OCC1=C(C)C[C@H]([C@@H](C)[C@H]2CC[C@H]3[C@@H]4C[C@H]5O[C@]56C(=O)C=CC(=O)[C@]6(C)[C@H]4CC[C@]23C)OC1=O	4.79	4.76	4.88	4.79	5.19	5.17	5.41	5.19								
CC1=C(C=O)C(=O)O[C@@H]([C@@H](C)[C@H]2CC[C@H]3[C@@H]4C[C@H]5O[C@]56C(=O)C=CC(=O)[C@]6(C)[C@H]4CC[C@]23C)C1	4.91	4.73	4.77	4.79	5.05	4.96	4.89	4.87								
CC1=C(CO)C(=O)O[C@@H]([C@@H](C)[C@H]2CC[C@H]3[C@@H]4C[C@H]5O[C@]56[C@@H](O)[C@H]5O[C@H]5C(=O)[C@]6(C)[C@H]4CC[C@]23C)C1	< 4.40	< 4.40	< 4.40	< 4.40	< 4.40	< 4.40	< 4.40	< 4.40								
CC1=C(COC(=O)C(C)(C)C)C(=O)O[C@@H]([C@@H](C)[C@H]2CC[C@H]3[C@@H]4C[C@H]5O[C@]56C(=O)C=CC(=O)[C@]6(C)[C@H]4CC[C@]23C)C1	5.40	5.72	5.43	5.64	6.00	5.92	5.39	6.00								
CCCCCCCC(=O)OCC1=C(C)C[C@H]([C@@H](C)[C@H]2CC[C@H]3[C@@H]4C[C@H](Cl)[C@]5(O)[C@@H](OC(=O)CCCCCCC)C=CC(=O)[C@]5(C)[C@H]4CC[C@]23C)OC1=O	< 4.40	< 4.40	< 4.40	< 4.40	< 4.40	< 4.40	< 4.40	< 4.40								
CCCCCCCCCCCC(=O)OCC1=C(C)C[C@H]([C@@H](C)[C@H]2CC[C@H]3[C@@H]4C[C@H]5O[C@]56[C@@H](O)C=CC(=O)[C@]6(C)[C@H]4CC[C@]23C)OC1=O	5.43	5.33	4.99	4.91	5.62	5.46	5.72	5.33								
CCCCCCCCCCCC(=O)OCC1=C(C)C[C@H]([C@@H](C)[C@H]2CC[C@H]3[C@@H]4C[C@H]5O[C@]56[C@@H](OC(=O)CCCCCCCCCCC)C=CC(=O)[C@]6(C)[C@H]4CC[C@]23C)OC1=O									Nd(Insoluble)	Nd(Insoluble)	Nd(Insoluble)	Nd(Insoluble)	Nd(Insoluble)	Nd(Insoluble)	Nd(Insoluble)	Nd(Insoluble)
CC1=C(COC(=O)c2ccc(Br)cc2)C(=O)O[C@@H]([C@@H](C)[C@H]2CC[C@H]3[C@@H]4C[C@H]5O[C@]56[C@@H](O)C=CC(=O)[C@]6(C)[C@H]4CC[C@]23C)C1	5.92	5.42	5.54	5.38	6.00	5.64	6.30	6.15								
COCC1=C(C)C[C@H]([C@@H](C)[C@H]2CC[C@H]3[C@@H]4C[C@H]5O[C@]56[C@@H](O)C=CC(=O)[C@]6(C)[C@H]4CC[C@]23C)OC1=O	5.49	5.48	5.38	5.28	5.85	5.72	6.05	5.82								
C=CCOC(=O)/C(CO)=C(C)\C=C\[C@@H](C)[C@H]1CC[C@H]2[C@@H]3C[C@H]4O[C@]45[C@@H](O)C=CC(=O)[C@]5(C)[C@H]3CC[C@]12C	5.38	5.15	5.10	5.08	5.62	5.62	5.66	5.33								
COCC1=C(C)C[C@H]([C@@H](C)[C@H]2CC[C@H]3[C@@H]4C[C@H]5O[C@]56[C@@H](O)[C@@H](OC)CC(=O)[C@]6(C)[C@H]4CC[C@]23C)OC1=O	< 4.40	< 4.40	< 4.40	< 4.40	4.57	4.67	4.43	< 4.40								
CC1=C(CCl)C(=O)O[C@@H]([C@@H](C)[C@H]2CC[C@H]3[C@@H]4C[C@H]5O[C@]56[C@H](Cl)C=CC(=O)[C@]6(C)[C@H]4CC[C@]23C)C1	5.51	5.10	5.02	4.74	5.39	5.32	5.72	5.51								
CC1=C(C)C(=O)O[C@@H]([C@@H](C)[C@H]2CC[C@H]3[C@@H]4C[C@H]5O[C@]56[C@@H](O)CC[C@@H](O)[C@]6(C)[C@H]4CC[C@]23C)C1	< 4.40	< 4.40	< 4.40	< 4.40	< 4.40	< 4.40	< 4.40	< 4.40								
CCCCCCCC(=O)OCC1=C(C)C[C@H]([C@@H](C)[C@H]2CC[C@H]3[C@@H]4C[C@H](Cl)[C@]5(O)[C@@H](O)C=CC(=O)[C@]5(C)[C@H]4CC[C@]23C)OC1=O	4.53	4.48	4.50	< 4.40	4.82	4.86	4.79	4.79								
CC(=O)OCC1=C(C)C[C@H]([C@@H](C)[C@H]2CC[C@H]3[C@@H]4C[C@H](Cl)[C@]5(O)[C@@H](O)C=CC(=O)[C@]5(C)[C@H]4CC[C@]23C)OC1=O	4.79	4.83	4.97	4.77	4.96	5.14	5.32	5.19								
CC1=C(CCl)C(=O)O[C@@H]([C@@H](C)[C@H]2CC[C@H]3[C@@H]4C[C@H]5O[C@]56[C@@H](O)C=CC(=O)[C@]6(C)[C@H]4CC[C@]23C)C1	5.60	5.55	5.70	5.44	5.96	6.00	6.30	6.22								
CC1=C(CO)C(=O)O[C@@H]([C@@H](C)[C@H]2CC[C@H]3[C@@H]4C[C@@H](O)[C@]56ON[C@H](CC(=O)[C@]5(C)[C@H]4CC[C@]23C)[C@@H]6O)C1	< 4.40	< 4.40	< 4.40	< 4.40	< 4.40	< 4.40	< 4.40	< 4.40								
COC(=O)CCC(=O)OCC1=C(C)C[C@H]([C@@H](C)[C@H]2CC[C@H]3[C@@H]4C[C@H](Cl)[C@]5(O)[C@@H](OC(=O)CCC(=O)OC)C=CC(=O)[C@]5(C)[C@H]4CC[C@]23C)OC1=O	4.85	5.10	5.11	5.05	5.26	5.32	5.41	5.39								
CC1=C(CO)C(=O)O[C@@H]([C@@H](C)[C@H]2CC[C@H]3[C@@H]4C[C@@H]5ON[C@@H]6CC(=O)[C@](C)([C@H]4CC[C@]23C)[C@@]5(O)[C@H]6O)C1	< 4.40	< 4.40	< 4.40	< 4.40	< 4.40	< 4.40	< 4.40	< 4.40								
CC1=C(COC(=O)c2cccc3ccccc23)C(=O)O[C@@H]([C@@H](C)[C@H]2CC[C@H]3[C@@H]4C[C@H]5O[C@]56[C@@H](OC(=O)c5cccc7ccccc57)C=CC(=O)[C@]6(C)[C@H]4CC[C@]23C)C1	< 4.40	< 4.40	< 4.40	< 4.40	< 4.40	< 4.40	< 4.40	< 4.40								
CC1=C(CO[Si](C)(C)C(C)(C)C)C(=O)O[C@@H]([C@@H](C)[C@H]2CC[C@H]3[C@@H]4C[C@H](O)[C@]5(O)[C@@H](O)C=CC(=O)[C@]5(C)[C@H]4CC[C@]23C)C1	4.83	4.92	4.85	5.00	5.12	5.25	5.10	5.12								
